Drawing on US7947664B2, “Angiotensin II receptor antagonists” (Merck Sharp & Dohme Corp., priority 2008, dated 2011), this text covers EC50 for two molecules.

The subject of this experiment is isolated rabbit thoracic aorta preparations. Briefly: Vessel relaxation in isolated rabbit thoracic aorta preparations. The following applies: Oryctolagus cuniculus; in vitro, rabbit aortic rings precontracted with noradrenaline (1 μM), functional endothelium. The method, then:
The ability of the compounds to induce vasorelaxation was tested in vitro in isolated rabbit thoracic aorta preparations (Wanstall J. C. et al., Br. J. Pharmacol., 134:463-472, 2001). Male New Zealand rabbits were anaesthetized with thiopental-Na (50 mg/kg, iv), sacrificed by exsanguinations and then the thorax was opened and the aorta dissected. Aortic ring preparations (4 mm in length) were set up in physiological salt solution (PSS) at 37° C. in small organ chambers (5 ml). The composition of PSS was (mM): NaCl 130, NaHCO3 14.9, KH2PO4 1.2, MgSO4 1.2, HEPES 10, CaCl2, ascorbic acid […] and glucose 1.1 (95% O2/5% CO2; pH 7.4). Each ring was mounted under 2 g passive tension. Isometric tension was recorded with a Grass transducer (Grass FT03) attached to a BIOPAC MP150 System. Preparations were allowed to equilibrate for 1 h, and then contracted submaximally with noradrenaline (NA, 1 μM) and, when the contraction was stable, acetylcholine (ACh, 10 μM) was added. A relaxant response to ACh indicated the presence of a functional endothelium. […] When a stable precontraction was reached, a cumulative concentration-response curve to either of the vasorelaxant agents was obtained in the presence of a functional endothelium. Each arterial ring was exposed to only one combination of inhibitor and vasorelaxant. […]
Examples 32 and 48 were evaluated for vessel relaxation.

Turning to `CCOc1nc2cccc(C(=O)OC(C)OC(=O)OCCC(C)CCO/N=[N+](\[O-])N(C)C(C)(C)C)c2n1Cc1ccc(-c2ccccc2-c2nnn[nH]2)cc1` (centres unmarked) [Example 32, O^2-(5-{[(1-{[(2-ethoxy-1-{[2′-(1H-tetrazol-5-yl)biphenyl-4-yl]methyl}-1H-benzimidazol-7-yl)carbonyl]oxy}ethoxy)carbonyl]oxy}-3-methylpentyl) 1-(N-tert-butylmethylamino)diazen-1-ium-1,2-diolate], the concentration giving a half-maximal response (EC50) was found to be 46 µM.

As to `CCOc1nc2cccc(C(=O)OC(C)OC(=O)O[C@H](C)CCCCO/N=[N+](\[O-])N(C)C(C)(C)C)c2n1Cc1ccc(-c2ccccc2-c2nnn[nH]2)cc1` (stereo partly drawn) [Example 48, O^2-[(5R)-5-{[(1-{[(2-ethoxy-1-{[2′-(1H-tetrazol-5-yl)biphenyl-4-yl]methyl}-1H-benzimidazol-7-yl)carbonyl]oxy}ethoxy)carbonyl]oxy}hexyl] 1-(N-tert-butylmethylamino)diazen-1-ium-1,2-diolate], the EC50 was greater than 100 µM.
